Test results as given in US20110092505A1, “ORGANIC COMPOUNDS” (priority 2008, published 2011).

Tested on: agonist-dependent nuclear export of HDAC5
Test: HDAC5 nuclear export assay (GFP-HDAC5, Cellomics imaging)
Assay type: cell-based
Settings: Rattus norvegicus, Ventricular myocyte, 2 h, neonatal rat ventricular myocytes, PGF2α stimulation, two hours; read-out: Inhibitory Activity HDAC
Protocol: Compounds are evaluated in the HDAC5 nuclear export assay, a 384-well plate-based assay that enables high throughput screening (HTS) to identify small molecules that block agonist-dependent nuclear export of HDAC5. […] Neonatal rat ventricular myocytes (NRVMs) are infected with GFP-HDAC5 encoding virus and plated on gelatin-coated 384-well dishes. […] Following two hours of stimulation, cells are fixed and GFP-HDAC5 localization quantified using the Cellomics system, which provides a read-out of relative fluorescence intensity in the cytoplasmic versus nuclear compartment.

SMILES | IC50 [nM]
Fc1ccc(Nc2cc(-c3ccnc(NC4CCCCC4)c3)nc(N3CCNCC3)c2)cc1 [N*2′*-Cyclohexyl-N*4*-(4-fluoro-phenyl)-6-piperazin-1-yl-[2,4′]bipyridinyl-4,2′-diamine] | 423
NC(=O)c1cc(-c2ccnc(NC3CCCCC3)c2)nc(N2CCN3CCC[C@@H]3C2)c1 [2′-Cyclohexylamino-6-(R)-hexahydro-pyrrolo[1,2-a]pyrazin-2-yl-[2,4′]bipyridinyl-4-carboxylic acid amide] | 616
c1cc(-c2cc(-c3nnco3)cc(N3CCNCC3)n2)cc(NC2CCCCC2)n1 [Cyclohexyl-(4-[1,3,4]oxadiazol-2-yl-6-piperazin-1-yl-[2,4′]bipyridinyl-2′-yl)-amine] | 126
O=C1NCc2c1cc(-c1ccnc(NC3CCCCC3)c1)nc2N1CCn2cnnc2C1 [6-(2-Cyclohexylamino-pyridin-4yl)-4-(5,6-dihydro-8H-[1,2,4]triazolo[4,3-a]pyrazin-7-yl)-2,3-dihydro-pyrrolo[3,4-c]pyridin-1-one] | > 1000

Further lines, results first:

IC50 [nM] | SMILES
> 1000 | CS(=O)(=O)c1cc(-c2ccnc(NC3CCCCC3)c2)nc(N2CCNCC2)c1 [Cyclohexyl-(4-methanesulfonyl-6-piperazin-1-yl-[2,4′]bipyridinyl-2′-yl)-amine]
421 | Nc1cc(-c2ccnc(NC3CCCCC3)c2)nc(N2CCNCC2)c1 [N*2′*-Cyclohexyl-6-piperazin-1-yl-[2,4′]bipyridinyl-4,2′-diamine]
> 1000 | COC(=O)c1ccc(-c2ccnc(NC3CCCCC3)c2)nc1N1CCNCC1 [2′-Cyclohexylamino-6-piperazin-1-yl-[2,4′]bipyridinyl-5-carboxylic acid methyl ester]
235 | O=[N+]([O-])c1cc(-c2ccnc(NC3CCCCC3)c2)nc(N2CCNCC2)c1 [Cyclohexyl-(4-nitro-6-piperazin-1-yl-[2,4′]bipyridinyl-2′-yl)-amine]
> 1000 | N#CCNC(=O)c1ccc(-c2ccnc(NC3CCCCC3)c2)nc1N1CCNCC1 [2′-Cyclohexylamino-6-piperazin-1-yl-[2,4′]bipyridinyl-5-carbonxylic acid cyanomethyl-amide]

Same assay, conditions: Rattus norvegicus, Ventricular myocyte, 2 h, read-out: Inhibitory Activity HDAC

SMILES | IC50 [nM]
FC(F)(F)c1cc(-c2ccnc(NC3CCCCC3)c2)nc(N2CCNCC2)c1 [Cyclohexyl-(6-piperazin-1-yl-4-trifluoromethyl-[2,4′]bipyridinyl-2′-yl)amine] | 342
